The values below come from patent US20260098025A1, “DIMERIC COMPOUNDS AS INHIBITORS OF GLYCOGEN SYNTHASE 1 (GYS1) AND METHODS OF USE THEREOF” (Maze Therapeutics, Inc., priority 2022, published 2026).

For this experiment, the target named is T1, recombinant hGYS1/GN1 protein (Homo sapiens, UniProt P13807).
T1 sequence (P13807 1-737): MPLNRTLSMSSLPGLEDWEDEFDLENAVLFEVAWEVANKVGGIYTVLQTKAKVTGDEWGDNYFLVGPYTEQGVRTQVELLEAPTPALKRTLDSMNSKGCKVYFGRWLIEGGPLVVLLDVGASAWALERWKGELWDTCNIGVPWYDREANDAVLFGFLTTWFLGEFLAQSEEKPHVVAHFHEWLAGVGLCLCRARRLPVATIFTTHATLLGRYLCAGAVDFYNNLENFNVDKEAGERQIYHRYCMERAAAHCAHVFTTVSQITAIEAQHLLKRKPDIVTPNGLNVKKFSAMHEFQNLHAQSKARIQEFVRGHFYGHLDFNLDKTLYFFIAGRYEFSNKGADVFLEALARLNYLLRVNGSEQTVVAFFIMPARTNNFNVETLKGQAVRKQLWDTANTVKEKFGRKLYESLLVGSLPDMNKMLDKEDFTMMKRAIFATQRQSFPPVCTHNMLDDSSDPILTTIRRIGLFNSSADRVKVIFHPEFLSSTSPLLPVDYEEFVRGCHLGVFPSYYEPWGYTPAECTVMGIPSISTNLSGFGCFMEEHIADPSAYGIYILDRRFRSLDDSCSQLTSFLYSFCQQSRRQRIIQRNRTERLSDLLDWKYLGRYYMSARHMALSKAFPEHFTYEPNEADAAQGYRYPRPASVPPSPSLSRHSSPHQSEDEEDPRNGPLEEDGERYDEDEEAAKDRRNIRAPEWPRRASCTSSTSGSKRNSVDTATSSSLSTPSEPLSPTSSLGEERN
T1 sequence (P46976 1-350 partner): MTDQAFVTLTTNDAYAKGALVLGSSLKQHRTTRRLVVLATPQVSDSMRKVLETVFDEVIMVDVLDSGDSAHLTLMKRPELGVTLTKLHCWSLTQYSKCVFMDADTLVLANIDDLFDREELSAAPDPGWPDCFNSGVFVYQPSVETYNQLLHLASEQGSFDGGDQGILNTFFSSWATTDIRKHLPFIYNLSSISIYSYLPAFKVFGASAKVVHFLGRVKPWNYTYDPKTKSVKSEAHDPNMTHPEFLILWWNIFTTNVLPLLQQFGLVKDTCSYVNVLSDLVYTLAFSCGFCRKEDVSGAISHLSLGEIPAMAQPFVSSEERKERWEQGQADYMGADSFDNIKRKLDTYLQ
The experiment in a line: GYS1 coupled enzyme assay (PK/LDH, NADH absorbance at 340 nm). In kind it is biochemical. The settings on record: geometric mean of at least 2 assay runs on separate days; hGYS1/GN1 50 nM, Glucose-6-Phosphate 1 mM, UDP-Glucose 0.8 mM. An excerpt: The GYS1 coupled enzyme assay is a kinetic biochemical assay that indirectly quantifies the rate of glycogen synthesis by coupling the conversion of GYS1 substrate UDP-glucose into UDP with downstream enzymatic reactions. UDP is released from UDP-glucose as glucose monomers are linked into the growing glycogen strand by GYS1. The coupled assay then proceeds with pyruvate kinase utilizing UDP and phospho(enol)pyruvate (PEP) to form pyruvate. Lactate dehydrogenase then converts pyruvate and NADH into lactate and NAD+. Oxidation of NADH to NAD+ can be measured continuously with a plate reader by quantifying the decrease in NADH absorbance at 340 nm over time.
Compounds that inhibit the hGYS1 enzyme and, subsequently, the downstream conversion of NADH to NAD+, were tested using assay ready plates (black, clear bottom 384 well plates) in a final DMSO reaction volume of 2.5% DMSO. The Assay Buffer contained 50 mM Tris pH 7.5, 2 mM MgCl2, and 100 mM KCl. Fresh stocks of BSA at a final concentration of 0.02% and TCEP at 1 mM were added before splitting buffer into hGYS1 buffer and substrate buffer. To the hGYS1 buffer, rabbit liver glycogen was added at a final concentration of 0.2% glycogen. Glucose-6-Phosphate was added at 1 mM, recombinant hGYS1/GN1 protein was added at 50 nM to the substrate buffer, phosphoenolpyruvate (PEP) was added at 2 mM, UDP-Glucose was added at 0.8 mM, NADH) was added at 0.6 mM, and Pyruvate Kinase/Lactate Dehydrogenase was added at 20 units/mL. The reaction was initiated by mixing hGYS1 buffer and substrate buffer at a 1:1 ratio. Both buffers were plated using a liquid dispensing device with hGYS1 buffer plated first followed by the substrate buffer. Plates were spun briefly to eliminate air bubbles and are immediately read in continuous mode at an absorbance of 340 nm, for 10 time points in one-minute increments, for a total of 10 minutes. The slope from these 10 time points was normalized to the positive and negative control wells. The duplicate % inhibition values are then averaged and fit to a Hill equation for dose response according to the Levenberg-Marquardt algorithm with the Hill equation maximum set to 100 and the minimum set to 0.
The results are shown in Table 2 below, which reports the IC50 of each compound. Unless otherwise specified, IC50 values are reported as the geometric mean of at least 2 assay runs on separate days. Each run represents the average of a technical replicate, where each compound was assayed twice in the same plate. As shown in the table below, the compounds of the present invention are potent inhibitors of human GYS1. A superscript “#” symbol in Table 2 indicates results from a single assay run.
Note that, in Table 2, the compounds are referred to by the corresponding Compound No. in Table 1, which is also referred to in the synthetic examples.

Some results are limits rather than exact numbers.

Broadly, the IC50 is the point on the concentration scale where inhibition reaches its midpoint. On to `O=C(N[C@@H](c1ccccc1)c1ccc(C2CC2)c(F)n1)[C@@H]1C[C@@H](F)CN1C(=O)COCCOCCNCCOCCOCCOCC(=O)N1C[C@H](F)C[C@H]1C(=O)N[C@@H](c1ccccc1)c1ccc(C2CC2)c(F)n1` [Compound 13, (2S,2′S,4R,4′R)-1,1′-(3,6,12,15,18-pentaoxa-9-azaicosanedioyl)bis(N-((S)-(5-cyclopropyl-6-fluoropyridin-2-yl)(phenyl)methyl)-4-fluoropyrrolidine-2-carboxamide)], for which the IC50 is over 10000 nM.

As for `Cc1cn(CC(=O)N2C[C@H](F)C[C@H]2C(=O)N[C@@H](c2ccccc2)c2ccc(C3CC3)c(F)n2)c(=O)n(CCOCCn2c(=O)c(C)cn(CC(=O)N3C[C@H](F)C[C@H]3C(=O)N[C@@H](c3ccccc3)c3ccc(C4CC4)c(F)n3)c2=O)c1=O` [Compound 14, (2S,2′S,4R,4′R)-1,1′-(2,2′-((oxybis(ethane-2,1-diyl))bis(5-methyl-2,4-dioxo-3,4-dihydropyrimidine-3,1(2H)-diyl))bis(acetyl))bis(N-((S)-(5-cyclopropyl-6-fluoropyridin-2-yl)(phenyl)methyl)-4-fluoropyrrolidine-2-carboxamide)], the IC50 was found to be 4.9 nM.

As for `Cc1cn(CC(=O)N2C[C@H](F)C[C@H]2C(=O)N[C@@H](c2ccccc2)c2ccc(C3CC3)c(F)n2)c(=O)n(CCOCCOCCn2c(=O)c(C)cn(CC(=O)N3C[C@H](F)C[C@H]3C(=O)N[C@@H](c3ccccc3)c3ccc(C4CC4)c(F)n3)c2=O)c1=O` [Compound 15, (2S,2′S,4R,4′R)-1,1′-(2,2′-(((ethane-1,2-diylbis(oxy))bis(ethane-2,1-diyl))bis(5-methyl-2,4-dioxo-3,4-dihydropyrimidine-3,1(2H)-diyl))bis(acetyl))bis(N-((S)-(5-cyclopropyl-6-fluoropyridin-2-yl)(phenyl)methyl)-4-fluoropyrrolidine-2-carboxamide)], the IC50 is 5.3 nM.

For the compound `Cc1cn(CC(=O)N2C[C@H](F)C[C@H]2C(=O)N[C@@H](c2ccccc2)c2ccc(C3CC3)c(F)n2)c(=O)nc1OCCOc1nc(=O)n(CC(=O)N2C[C@H](F)C[C@H]2C(=O)N[C@@H](c2ccccc2)c2ccc(C3CC3)c(F)n2)cc1C` [Compound 16, (2S,2′S,4R,4′R)-1,1′-(2,2′-((ethane-1,2-diylbis(oxy))bis(5-methyl-2-oxopyrimidine-4,1(2H)-diyl))bis(acetyl))bis(N-((S)-(5-cyclopropyl-6-fluoropyridin-2-yl)(phenyl)methyl)-4-fluoropyrrolidine-2-carboxamide)], the IC50 amounted to 23 nM.

For the compound `CN(CCOCCOCCOCC(=O)N1C[C@H](F)C[C@H]1C(=O)N[C@@H](c1ccccc1)c1ccc(C2CC2)c(F)n1)CCOCCOCC(=O)N1C[C@H](F)C[C@H]1C(=O)N[C@@H](c1ccccc1)c1ccc(C2CC2)c(F)n1` [Compound 17, (2S,2′S,4R,4′R)-1,1′-(9-methyl-3,6,12,15,18-pentaoxa-9-azaicosanedioyl)bis(N-((S)-(5-cyclopropyl-6-fluoropyridin-2-yl)(phenyl)methyl)-4-fluoropyrrolidine-2-carboxamide)], the concentration for half-maximal inhibition (IC50) worked out at 7.5 nM.
